# Legend:
# DIGSA [1] = experiment: Herbicidal post-emergence action 1a (greenhouse pots, visual rating); assay type: in vivo, Digitaria sanguinalis; details: rated visually about 3 weeks after treatment, 100% = plants have died, 0% = like control plants
# Method: (§1) [table] a) Seeds of monocotyledonous and dicotyledonous weeds and crop plants are placed in sandy loam in plastic or organic plant pots, covered with soil and cultivated in a greenhouse under controlled growth conditions. 2 to 3 weeks after sowing, the test plants are treated at the one-leaf stage. The compounds of the invention, formulated in the form of wettable powders (WP) or as emulsion concentrates (EC), are then sprayed onto the green parts of the plants as aqueous suspension or emulsion with addition of 0.5% additive at a water application rate of 600 1/ha (converted). After the test plants have been kept in the greenhouse under optimum growth conditions for about 3 weeks, the activity of the preparations is rated visually in comparison to untreated controls. For example, 100% activity=the plants have died, 0% activity=like control plants. Tables A1 to A15 below show the effects of selected compounds of the general formula (I) according to Tables 1 and 2 on various harmful plants and an application rate corresponding to 320 g/ha and/or 80 g/ha, which were obtained by the experimental procedure mentioned above.
# VIOTR [2] = experiment: Herbicidal pre-emergence action 2a (greenhouse pots, visual scoring); assay type: in vivo, Viola tricolor; details: dosage 320 g/ha, visual scoring after about 3 weeks vs untreated controls
# Summary of the method: (§2)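 Percent effect (0% like control, 100% plants died) was scored by eye roughly 3 weeks post-application. Formulated compound went onto the soil covering freshly sown seeds in water at 600 l/ha with 0.5% additive; dose 320 g/ha and/or 80 g/ha.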
# VERPE [3] = experiment: Herbicidal post-emergence action 1a (greenhouse pots, visual rating); assay type: in vivo, Veronica persica; details: visual rating about 3 weeks after treatment
# Summary of the method: (§3)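 Weeds and crops sown in sandy loam in greenhouse pots were sprayed post-emergence at the one-leaf stage (2–3 weeks after sowing) with WP or EC formulations plus 0.5% additive at 600 l/ha water, 320 and/or 80 g/ha. About 3 weeks later damage was rated visually against untreated controls (0% = no effect, 100% = dead).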
# VERPE [4] = experiment: Herbicidal pre-emergence action 2a (greenhouse pots, visual scoring); assay type: in vivo, Veronica persica; details: dosage 320 g/ha, visual scoring after about 3 weeks vs untreated controls
# Summary of the method: as §2
# harmful plants [5] = experiment: Herbicidal post-emergence action 1a, summary across species; assay type: in vivo; details: Tables A1 to A15 (320 g/ha and/or 80 g/ha)
# Method: as §1, with “a)” for “[table] a)”, “plants.” for “plants. Tables A1 to A15 below show the effects of selected compounds of the general formula (I) according to Tables 1 and 2 on various harmful plants and an application rate corresponding to 320 g/ha and/or 80 g/ha, which were obtained by the experimental procedure mentioned above.”
# Tables A1 to A15 below show the effects of selected compounds of the general formula (I) according to Tables 1 and 2 on various harmful plants and an application rate corresponding to 320 g/ha and/or 80 g/ha, which were obtained by the experimental procedure mentioned above.
# For example, compound nos. I-05, I-07, I-08, I-10, I-12, I-16, I-17, I-22, I-36, I-37, I-39 and I-40 in the post-emergence method have very good action (80% to 100% herbicidal activity) against harmful plants such as Alopecurus myosuroides, Amaranthus retroflexus, Avena fatua, Lolium rigidum, Polygonum convolvulus, Setaria viridis, Veronica persica and Viola tricolor at an application rate of 0.32 kg of active substance per hectare.
# POLCO [6] = experiment: Herbicidal pre-emergence action 2a (greenhouse pots, visual scoring); assay type: in vivo, Polygonum convolvulus; details: dosage 320 g/ha, visual scoring after about 3 weeks vs untreated controls
# Summary of the method: as §2
# ABUTH = experiment: Herbicidal post-emergence action 1a (greenhouse pots, visual rating); assay type: in vivo, Abutilon theophrasti; details: visual rating about 3 weeks after treatment
# Summary of the method: as §3
# SETVI [7] = experiment: as above; assay type: in vivo, Setaria viridis; details: rated visually about 3 weeks after treatment, 100% = plants have died, 0% = like control plants
# Summary of the method: as §3
# AMARE [8] = experiment: as above; assay type: in vivo, Amaranthus retroflexus; details: visual rating about 3 weeks after treatment
# Summary of the method: as §3
# LOLRI [9] = experiment: as above; assay type: in vivo, Lolium rigidum; details: rated visually about 3 weeks after treatment, 100% = plants have died, 0% = like control plants
# Summary of the method: as §3
# AVEFA [10] = experiment: as above; assay type: in vivo, Avena fatua; details: rated visually about 3 weeks after treatment, 100% = plants have died, 0% = like control plants
# Summary of the method: as §3
# LOLRI [11] = experiment: Herbicidal pre-emergence action 2a (greenhouse pots, visual scoring); assay type: in vivo, Lolium rigidum; details: dosage 320 g/ha, visual scoring after about 3 weeks vs untreated controls
# Summary of the method: as §2
# DIGSA [12] = experiment: as above; assay type: in vivo, Digitaria sanguinalis; details: dosage 320 g/ha, visual scoring after about 3 weeks
# Excerpt: (§4) [table] a) Seeds of monocotyledonous and dicotyledonous weed plants and crop plants are placed in plastic or organic plant pots and covered with soil. The compounds of the invention, formulated in the form of wettable powders (WP) or as emulsion concentrates (EC), are then applied onto the surface of the covering soil as aqueous suspension or emulsion with addition of 0.5% additive at a water application rate of 600 1/ha (converted). After the treatment, the pots are placed in a greenhouse and kept under good growth conditions for the trial plants. After about 3 weeks, the effect of the preparations is scored visually in comparison with untreated controls as percentages. For example, 100% activity=the plants have died, 0% activity=like control plants. Tables B1 to B15 below show the effects of selected compounds of the general formula (I) according to Tables 1 and 2 on various harmful plants and an application rate corresponding to 320 g/ha and/or 80 g/ha, which were obtained by the experimental procedure mentioned above.
# ECHCG [13] = experiment: Herbicidal post-emergence action 1a (greenhouse pots, visual rating); assay type: in vivo, Echinochloa crus-galli; details: Dosage 320 g/ha; rated visually about 3 weeks after treatment; 100% = plants have died, 0% = like control plants
# Method: as §1
# SETVI [14] = experiment: Herbicidal pre-emergence action 2a (greenhouse pots, visual scoring); assay type: in vivo, Setaria viridis; details: dosage 320 g/ha, visual scoring after about 3 weeks vs untreated controls
# Summary of the method: as §2
# ALOMY [15] = experiment: Herbicidal post-emergence action 1a (greenhouse pots, visual rating); assay type: in vivo, Alopecurus myosuroides; details: rated visually about 3 weeks after treatment, 100% = plants have died, 0% = like control plants
# Summary of the method: as §3
# VIOTR [16] = experiment: as above; assay type: in vivo, Viola tricolor; details: visual rating about 3 weeks after treatment
# Summary of the method: as §3
# AVEFA [17] = experiment: Herbicidal pre-emergence action 2a (greenhouse pots, visual scoring); assay type: in vivo, Avena fatua; details: dosage 320 g/ha, visual scoring after about 3 weeks
# Summary of the method: as §2
# POLCO [18] = experiment: Herbicidal post-emergence action 1a (greenhouse pots, visual rating); assay type: in vivo, Polygonum convolvulus; details: dosage 320 g/ha, visual rating about 3 weeks after treatment
# Summary of the method: as §3
# ALOMY [19] = experiment: Herbicidal pre-emergence action 2a (greenhouse pots, visual scoring); assay type: in vivo, Alopecurus myosuroides; details: dosage 320 g/ha, visual scoring after about 3 weeks
# Summary of the method: as §2
# ECHCG [20] = experiment: as above; assay type: in vivo, Echinochloa crus-galli; details: dosage 320 g/ha, visual scoring after about 3 weeks
# Excerpt: as §4
# AMARE [21] = experiment: as above; assay type: in vivo, Amaranthus retroflexus; details: dosage 320 g/ha, visual scoring after about 3 weeks vs untreated controls
# Summary of the method: as §2
# harmful plants [22] = experiment: Herbicidal pre-emergence action 2a, summary across species; assay type: in vivo; details: Tables B1 to B15 (320 g/ha and/or 80 g/ha)
# Excerpt: as §4, with “a)” for “[table] a)”, “plants.” for “plants. Tables B1 to B15 below show the effects of selected compounds of the general formula (I) according to Tables 1 and 2 on various harmful plants and an application rate corresponding to 320 g/ha and/or 80 g/ha, which were obtained by the experimental procedure mentioned above.”
# Tables B1 to B15 below show the effects of selected compounds of the general formula (I) according to Tables 1 and 2 on various harmful plants and an application rate corresponding to 320 g/ha and/or 80 g/ha, which were obtained by the experimental procedure mentioned above.
# For example, compound nos. I-07, I-08, I-11, I-12, I-13, I-16, I-17, I-20, I-36, I-37, I-39, I-45, I-46, I-48, I-52 and I-53 in the pre-emergence method have very good action (80% to 100% herbicidal activity) against harmful plants such as Alopecurus myosuroides, Amaranthus retroflexus, Digitaria sanguinalis, Lolium rigidum, Polygonum convolvulus, Setaria viridis, Veronica persica and Viola tricolor at an application rate of 0.32 kg of active substance per hectare.
# MATIN = experiment: Herbicidal pre-emergence action 2a (greenhouse pots, visual scoring); assay type: in vivo, Matricaria inodora; details: dosage 320 g/ha, visual scoring after about 3 weeks vs untreated controls
# Summary of the method: as §2
# PHBPU [23] = experiment: as above; assay type: in vivo, Pharbitis purpurea; details: dosage 320 g/ha, visual scoring after about 3 weeks vs untreated controls
# Excerpt: as §4
# PHBPU [24] = experiment: Herbicidal post-emergence action 1a (greenhouse pots, visual rating); assay type: in vivo, Pharbitis purpurea; details: visual rating about 3 weeks after treatment
# Summary of the method: as §3
SMILES,Post-emergence action against VERPE in % (VERPE [3]; dosage 320 g/ha) [%],Pre-emergence action against VERPE in % (VERPE [4]) [%],Pre-emergence action against POLCO in % (POLCO [6]) [%],Post-emergence action against ABUTH in % (ABUTH; dosage 80 g/ha) [%],Post-emergence action against ABUTH in % (ABUTH; dosage 320 g/ha) [%],Post-emergence action against SETVI in % (SETVI [7]; Dosage 320 g/ha) [%],Post-emergence action against AMARE in % (AMARE [8]; dosage 80 g/ha) [%],Post-emergence action against AMARE in % (AMARE [8]; dosage 320 g/ha) [%],Post-emergence action against LOLRI in % (LOLRI [9]; Dosage 320 g/ha) [%],Post-emergence action against AVEFA in % (AVEFA [10]; Dosage 80 g/ha) [%],Post-emergence action against AVEFA in % (AVEFA [10]; Dosage 320 g/ha) [%],Pre-emergence action against LOLRI in % (LOLRI [11]) [%],Post-emergence action against ECHCG in % (ECHCG [13]) [%],Pre-emergence action against SETVI in % (SETVI [14]) [%],Post-emergence action against ALOMY in % (ALOMY [15]; Dosage 320 g/ha) [%],Pre-emergence action against AVEFA in % (AVEFA [17]) [%],Pre-emergence action against ALOMY in % (ALOMY [19]) [%],Pre-emergence action against ECHCG in % (ECHCG [20]) [%],Pre-emergence action against AMARE in % (AMARE [21]) [%],also measured
COC(=O)[C@@H](C)Oc1nn(-c2cnccn2)c(-c2ccc(F)nc2)c1Br [Example I-17],90,100,90,80,80,80,80,80,90,90,100,100,90,100,100,100,100,100,100,Post-emergence action against DIGSA in % (DIGSA [1]; Dosage 80 g/ha): 80%; Post-emergence action against DIGSA in % (DIGSA [1]; Dosage 320 g/ha): 90%; Pre-emergence action against VIOTR in % (VIOTR [2]): 100%; herbicidal efficacy against harmful plants in the case of post-emergence treatment (in words) (harmful plants [5]): good herbicidal efficacy; Post-emergence action against LOLRI in % (LOLRI [9]; Dosage 80 g/ha): 90%; Pre-emergence action against DIGSA in % (DIGSA [12]): 100%; Post-emergence action against ALOMY in % (ALOMY [15]; Dosage 80 g/ha): 100%; Post-emergence action against VIOTR in % (VIOTR [16]; dosage 80 g/ha): 90%; Post-emergence action against VIOTR in % (VIOTR [16]; dosage 320 g/ha): 90%; Post-emergence action against POLCO in % (POLCO [18]): 90%; herbicidal efficacy against harmful plants in the case of pre-emergence treatment (in words) (harmful plants [22]): good herbicidal efficacy
O=C(O)COc1nn(-c2cnccn2)c(-c2cncc(F)c2)c1Br [Example I-93],80,100,100,80,80,90,90,90,90,100,100,100,90,100,100,100,90,100,100,Post-emergence action against VERPE in % (VERPE [3]; dosage 80 g/ha): 80%; Pre-emergence action against MATIN in % (MATIN): 100%; Post-emergence action against SETVI in % (SETVI [7]; Dosage 80 g/ha): 90%; Pre-emergence action against PHBPU in % (PHBPU [23]): 100%; Post-emergence action against PHBPU in % (PHBPU [24]; dosage 80 g/ha): 90%; Post-emergence action against PHBPU in % (PHBPU [24]; dosage 320 g/ha): 90%
